# From patent US9049874B2, “Use of azaperone for reducing antibiotic usage” (Elanco Animal Health Ireland Limited, priority 2008, dated 2015)
# Test system: weaned pigs
# Test: Preclinical study of the effects of azaperone administered via drinking water: therapeutic usage of antibiotics
# Assay type: in vivo
# Settings: for number of pigs treated (therapeutic use of antibiotics): 6 mg azaperone per liter drinking water for first 3 days
# Experimental: The study was performed in weaned pigs to investigate the effect of azaperone that was continuously orally administered via drinking water on postweaning diarrhoea and associated usage of antibiotics, behaviour, feed conversion, growth and homogeneity of growth. Groups of approximately 250 pigs were enrolled in the study starting from the moment they were weaned. The pigs were housed according to everyday farming conditions in a conventional pig farm. All pigs were housed in similar buildings. Each group was housed in 2 compartments, gilts and barrows were housed in separate compartments. Pigs were kept in pens of approximately 12 individuals each. After weaning, the piglets were housed in continuous artificial light for the first 48 hours. Afterwards, pigs were housed in continuous darkness for the further duration of the study, except during observations (twice a day). During the course of the study, pigs were not vaccinated. A metaphylactic colistine treatment via drinking water was applied in each group starting from the fifth day after weaning. Treatment continued for seven days. Pigs were fed ad libitum. Troughs were filled automatically with a computerized system that records the supplied weight of feed per pen. During the first ten days of the nursery period, pigs were fed a pelleted weaner feed which had also been available to the piglets in the farrowing unit. Between the 10th and 15th day at the nursery, the weaner feed was gradually replaced by grower pellets which have been given until the 35th day. Finally a switch was made between the 35th and the 40th day from grower pellets to starter pellets. Tap water was available during the whole period of the study and was supplied via a water nipple in the feeding trough. The drinking water comprising azaperone was obtained by diluting Stresnil™ injection in water to obtain a concentration of 6 mg azaperone per liter drinking water. A primary dilution was prepared by diluting 90 ml of Stresnil™ 4% injectable solution with tap water to obtain 6 liters of preparation. This primary dilution was linked for 24 hours with an automatic dosing system which continuously diluted the preparation in the drinking water at a rate of 1 to 100. One preparation of the primary dilution was sufficient to treat 600 liters of drinking water which exceeded the anticipated daily consumed volume of water by the pigs in one compartment. The two following days, a new primary dilution was made fresh each morning and linked to the automatic dosing system for 24 hours. This study was a controlled parallel study with 4 sequential groups of approximately 250 weaned pigs each. The first and third group were treated with azaperone via the drinking water for 3 consecutive days. The second and fourth group were control groups treated with placebo (plain drinking water). [table] On day one of the test period, water containing 6 mg azaperone per liter or placebo, was made available. Starting from the fourth day, the drinking water no longer contained azaperone. All pigs followed the normal procedures for further fattening. No pigs were brought to the slaughterhouse during the study (3 days dosing and 39 days follow-up). In order to assess the effect of the oral azaperone administration on the onset of postweaning diarrhoea and concomittant therapeutic usage of antibiotics, the occurrence of diarrhoea was followed in groups 1 to 4 and recorded daily by the Principal Investigator. All individual pens were checked by the Principal Investigator and a diarrhoea score was noted as follows: Any use of antibiotics in groups 1 to 4 was recorded the first three weeks after weaning and grouping of the animals. The decision to treat an animal with antibiotics was made by the Principal Investigator according to everyday practice on that farm.
# [1] = during the nursery period, azaperone-treated group
compound,measurement,setting,value
O=C(CCCN1CCN(c2ccccn2)CC1)c1ccc(F)cc1 [azaperone],usage of antibiotics compared to placebo-treated groups,6 mg/liter water during first three days of 42 day test period,significant reduction of the usage of antibiotics
same,number of piglets treated with antibiotics (conclusion),"6 mg/liter water during first three days of 42 day test period, vs. 29 in placebo",11
same,number of individual antibiotic treatments (conclusion),"6 mg/liter water during first three days of 42 day test period, vs. 33 in placebo",13
same,number of ampicilline injections,[1],1
same,number of enrofloxacine injections,[1],4
same,number of oxytetracycline injections,[1],2
same,number of piglets treated with antibiotics for curative reasons,[1],7 piglets
same,total number of individual injections with antibiotics,[1],7 injections
same,number of pigs treated (therapeutic use of antibiotics),week 1 after weaning,4
same,number of pigs treated (therapeutic use of antibiotics),week 2 after weaning,3
same,number of pigs treated (therapeutic use of antibiotics),week 3 after weaning,0
